# The source made the active and inactive calls.
# What was measured:
# [1] = molecular target: Paired box protein Pax-8 (Homo sapiens, UniProt Q06710); test: inhibitors of PAX8-driven TPO luciferase reporter, dose response, RMG-I cells, cherry-pick (AID 687027); type: functional, cell-based;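 further: luciferase reporter driven by Pax8 target thyroperoxidase promoter measured by SteadyGlo luminescence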
# [2] = cytotoxicity in OVCAR8 ovarian cancer cells, dose response, PAX8 project, cell-based, plate reader, dry powder samples (AID 743197); type: functional; settings: OVCAR-8
# [3] = NIH:OVCAR-3 ovarian cancer cell cytotoxicity, dose response, PAX8 inhibitor project, plate reader, dry powder samples (AID 743044); type: functional, cell-based
# [4] = molecular target: T1, fMet-Leu-Phe receptor (Homo sapiens, UniProt P21462); test: FPR ligands, dose response (AID 519); type: functional
# T1 sequence (P21462 whole entry): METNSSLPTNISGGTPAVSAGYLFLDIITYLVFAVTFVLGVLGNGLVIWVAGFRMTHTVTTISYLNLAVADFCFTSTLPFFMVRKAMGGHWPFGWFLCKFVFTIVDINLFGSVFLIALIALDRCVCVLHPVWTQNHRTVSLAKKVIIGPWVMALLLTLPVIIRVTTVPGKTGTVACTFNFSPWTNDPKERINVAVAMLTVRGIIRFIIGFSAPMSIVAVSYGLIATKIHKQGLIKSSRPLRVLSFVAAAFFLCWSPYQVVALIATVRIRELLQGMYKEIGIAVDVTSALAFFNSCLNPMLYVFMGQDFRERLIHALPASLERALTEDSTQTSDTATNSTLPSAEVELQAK
# [5] = non-specific cell cytotoxicity, dose response, cytotoxicity control for PAX8 inhibitor project, plate reader, dry powder samples (AID 743021); type: functional, cell-based
# [6] = cells
# [7] = molecular target: T2, Oxysterols receptor LXR-beta (Homo sapiens, UniProt P55055); type: functional, cell-based;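 further: Cell-based luminescence dose-response assay of agonist activity at LXR, run as a confirmatory counterscreen to a daf-12 agonist screen; HEK293 cells with Gal4-LXR fusion and GAL4-driven luciferase reporter; agonist potency from rising luciferase signal of a Gal4-LXR reporter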
# T2 sequence (P55055 whole entry): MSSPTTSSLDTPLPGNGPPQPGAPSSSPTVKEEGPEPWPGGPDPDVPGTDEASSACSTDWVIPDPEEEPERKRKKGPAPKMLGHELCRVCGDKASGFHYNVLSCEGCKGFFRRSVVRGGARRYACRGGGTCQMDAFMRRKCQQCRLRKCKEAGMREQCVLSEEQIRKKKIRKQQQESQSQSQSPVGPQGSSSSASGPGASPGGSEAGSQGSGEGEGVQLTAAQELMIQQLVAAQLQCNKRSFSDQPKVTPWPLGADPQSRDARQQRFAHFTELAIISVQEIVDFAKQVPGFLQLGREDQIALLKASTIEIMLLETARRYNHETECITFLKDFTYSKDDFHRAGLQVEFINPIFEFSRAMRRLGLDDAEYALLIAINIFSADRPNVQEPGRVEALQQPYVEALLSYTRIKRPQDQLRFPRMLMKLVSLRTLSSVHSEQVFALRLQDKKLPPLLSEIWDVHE
# [8] = system: Streptococcus; test: Group A Streptococcus viability loss, dose response, counter-screen for streptokinase expression inhibitor project, luminescence, BacTiterGlo (AID 1915); type: functional, organism-based;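 further: potency for reduction of bacterial viability or growth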
# [9] = system: Streptococcus sp. 'group A'; test: growth inhibition of control SK(-) GAS strain, dose response, counter-screen for streptokinase expression inhibitor project, luminescence, kanamycin, BacTiterGlo, confirmation (AID 1900); type: functional, organism-based
# [10] = molecular target: Disintegrin and metalloproteinase domain-containing protein 17 (Homo sapiens, UniProt P78536); test: ADAM17 protease inhibitors, dose response, counter-screen for ADAM10 exosite inhibitor project, biochemical, quenched FRET substrate (AID 743253)
# [11] = molecular target: T3, Streptokinase A (Streptococcus pyogenes serotype M1, UniProt P10520); test: S. pyogenes streptokinase expression inhibitors, potency, dose response, plasminogen activation absorbance, OD405 (AID 1914); type: functional, Streptococcus pyogenes M1 GAS;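 further: secreted streptokinase activity via plasminogen activation per viability signal from cell pellet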
# T3 sequence (P10520 whole entry): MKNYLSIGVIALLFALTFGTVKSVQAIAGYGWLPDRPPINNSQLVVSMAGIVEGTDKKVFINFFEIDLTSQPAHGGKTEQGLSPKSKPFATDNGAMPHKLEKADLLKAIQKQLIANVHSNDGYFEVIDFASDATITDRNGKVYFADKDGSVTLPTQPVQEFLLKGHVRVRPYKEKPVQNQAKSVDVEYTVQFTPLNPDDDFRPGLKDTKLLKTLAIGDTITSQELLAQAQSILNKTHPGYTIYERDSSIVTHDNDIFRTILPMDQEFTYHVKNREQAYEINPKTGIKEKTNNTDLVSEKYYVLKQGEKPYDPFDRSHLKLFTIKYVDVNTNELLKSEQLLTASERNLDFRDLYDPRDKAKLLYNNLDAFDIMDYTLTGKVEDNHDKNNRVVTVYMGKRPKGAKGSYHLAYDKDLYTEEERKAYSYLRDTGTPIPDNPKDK
# Sequence of Paired box protein Pax-8 (Q06710 whole entry): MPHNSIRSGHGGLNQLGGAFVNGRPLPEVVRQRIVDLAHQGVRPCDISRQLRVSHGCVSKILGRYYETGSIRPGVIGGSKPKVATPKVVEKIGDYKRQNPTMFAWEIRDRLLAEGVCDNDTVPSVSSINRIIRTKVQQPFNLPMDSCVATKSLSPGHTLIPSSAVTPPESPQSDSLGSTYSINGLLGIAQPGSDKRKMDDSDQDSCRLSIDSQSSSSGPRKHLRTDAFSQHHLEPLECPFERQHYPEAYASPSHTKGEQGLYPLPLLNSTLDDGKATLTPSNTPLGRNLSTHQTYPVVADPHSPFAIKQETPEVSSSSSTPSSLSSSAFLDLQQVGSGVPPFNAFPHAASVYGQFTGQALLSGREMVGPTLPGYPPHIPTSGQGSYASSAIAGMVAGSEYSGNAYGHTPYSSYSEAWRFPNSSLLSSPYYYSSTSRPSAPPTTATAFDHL
# Sequence of Disintegrin and metalloproteinase domain-containing protein 17 (P78536 whole entry, the tested form may be a part): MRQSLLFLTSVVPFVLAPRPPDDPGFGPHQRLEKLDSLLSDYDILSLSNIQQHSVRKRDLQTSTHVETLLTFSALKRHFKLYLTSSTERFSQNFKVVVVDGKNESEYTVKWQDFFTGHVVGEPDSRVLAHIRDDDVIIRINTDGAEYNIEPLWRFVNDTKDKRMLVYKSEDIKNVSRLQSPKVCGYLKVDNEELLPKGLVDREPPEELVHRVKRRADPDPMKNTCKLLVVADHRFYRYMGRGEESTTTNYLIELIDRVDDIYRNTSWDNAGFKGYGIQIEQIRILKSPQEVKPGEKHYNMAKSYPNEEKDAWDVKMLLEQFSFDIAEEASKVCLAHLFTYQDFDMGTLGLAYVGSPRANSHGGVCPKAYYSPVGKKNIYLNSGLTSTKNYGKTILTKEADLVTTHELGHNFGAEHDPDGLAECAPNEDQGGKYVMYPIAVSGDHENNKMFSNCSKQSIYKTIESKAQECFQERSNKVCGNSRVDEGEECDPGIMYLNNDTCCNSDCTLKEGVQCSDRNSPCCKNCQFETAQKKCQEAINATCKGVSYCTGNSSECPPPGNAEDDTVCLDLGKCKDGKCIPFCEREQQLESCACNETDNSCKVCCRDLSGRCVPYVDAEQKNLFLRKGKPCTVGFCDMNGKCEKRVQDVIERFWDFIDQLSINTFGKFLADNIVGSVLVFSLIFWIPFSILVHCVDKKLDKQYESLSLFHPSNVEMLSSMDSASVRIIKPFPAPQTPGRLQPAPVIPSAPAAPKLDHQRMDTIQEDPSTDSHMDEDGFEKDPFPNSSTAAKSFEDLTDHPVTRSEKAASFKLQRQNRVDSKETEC
smiles,measurement,setting,value
C[C@@H]1CN([C@H](C)CO)C(=O)c2cc(NC(=O)Nc3ccc(F)cc3)ccc2O[C@@H](C)CCCCO[C@H]1CN(C)C(=O)Nc1ccc(C(F)(F)F)cc1,AC50,[1],5.23 µM (active)
same,AC50,[2],39.3 µM (active)
same,AC50,[3],35 µM (active)
CCOC(=O)c1c(C)[nH]c(/C=N/c2ccccc2)c1O,Ki,[4],> 66.7 µM (inactive)
O=C(Nc1ccc(C(F)(F)F)cc1)N1C[C@@H]2N[C@H](C1)[C@H]2c1ccc(-c2cccc(F)c2)cc1,AC50,[1],13.2 µM (active)
same,AC50,[5],27.9 µM (active)
O=C1C(/C=N/Cc2ccco2)=C(O)c2ccccc21,EC50,[6],> 67.5 µM (inactive)
same,EC50,[7],> 67.5 µM (inactive)
CCc1ccc(NC(=O)c2ccc(F)c(S(=O)(=O)NCC3COc4ccccc4O3)c2)cc1 (configuration not stated),EC50,[8],18.4 µM (active)
same,EC50,[9],10.7 µM (active)
same,IC50,[10],> 69.5 µM (inactive)
same,EC50,[11],35.2 µM (active)

# From ChEMBL document CHEMBL1201862, “PubChem BioAssay data set” (2004)
